Measured values from patent US4427671A, “Steroids esterified in position 17 and thioesterified in position 21, a process for preparing them and their use as medicaments” (priority 1981, dated 1984).

Experiments:
Type in all cases: in vivo, male Sprague-Dawley I.O.P.S. rats
granuloma = assay: Local anti-inflammatory activity: inhibition of granuloma formation around implanted cotton wool pellet; settings: for R 1 (relative local anti-inflammatory activity compared with betamethasone 17,21-dipropionate): D.P.B. = 1, calculated from ED50; for R 1 (relative local anti-inflammatory activity compared with betamethasone 17,21-dipropionate) / ED50 (local anti-inflammatory activity, 50% inhibition in granuloma weight): Table 1; for ED50 (local anti-inflammatory activity, 50% inhibition in granuloma weight): rat, cotton pellet granuloma, six days after implantation
Experimental: A. Winter and C. C. Porter (J. Am. Pharm. Ass. 1957, 46, 9, pages 515-519).
(§1) The principle of the test consists in implanting a pellet of cotton wool in the dorsal subcutaneous tissue of the animal. The corticoids to be studied are added to the pellet so that the following tests can be carried out:
(1) Determination of the local anti-inflammatory activity
The presence of products within the pellet may inhibit or prevent the formation of a granuloma.
(§2) The animals are divided into random homogeneous groups of 10 male Sprague-Dawley I.O.P.S. rats with a body weight of between 100 and 120 grams.
(§3) The pellets to be implanted weigh from 35 to 40 mg and are prepared from balls of dental cotton wool. Before being inserted, each pellet is weighed and impregnated with the precise quantity of the product which is to be studied, dissolved in 0.2 ml of chloroform. The chloroform is eliminated by evaporation over a period of 24 hours at ambient temperature.
(§4) Before implantation, each pellet is impregnated with a solution of antibiotics:
Streptomycin 0.1 gram/ml.
(§5) The animals are anaesthetised with ether, and then two pellets are implanted in each animal in the dorsal subcutaneous tissue, on each side of the median line:
(§6) on the left, the pellet containing the product to be tested (treated animal) or the carrier only (control animal);
(§7) on the right, the pellet containing the carrier only.
(§8) The animals are given normal food and are sacrificed six days after the pellets have been implanted.
(1) Local anti-inflammatory activity
The pellets surrounded by granulomatous tissue are carefully removed and weighed, and then dried until a constant weight is obtained.
The relative activity of the test products compared with betamethasone 17,21-dipropionate is calculated according to the following equation: [formula]

thymus = assay: Systemic activity after local administration: effect on the weight of the thymus
Experimental: (§9) The pharmacological activity of the products described in the invention was tested in the rat using a technique similar to that described by C. A. Winter and C. C. Porter (J. Am. Pharm. Ass. 1957, 46, 9, pages 515-519).
as §1
(§10) (2) Determination of the systemic activity of the products after local administration
(§11) Local application of the corticoids may result, inter alia, in:
(a) a reduction in the defence systems of the organism, the most notable sign of which is a reduction in the weight of the animals' thymuses.
as §2, §3, §4, §5, §6, §7, §8
(2) Determination of the systemic effect
The thymuses are taken from the same animals and weighed. Using the same type of calculation, an ED 50 is determined, which corresponds to the dosage of product resulting in a 50% decrease in weight of the thymuses, compared with the control animals.

[1] = Systemic activity after local administration: effect on weight gain
Experimental: as §9, §1, §10, §11
(b) Disruption of the protein metabolism which causes tissue fusion, resulting in an inhibition of the weight increase in animals.
as §2, §3, §4, §5, §6, §7, §8
(b) Effect on weight gain
The weight gain over six days is determined on the animals before they are sacrificed.
The activity of the products was expressed as the percentage inhibition in the weight gain of the treated animals compared with the weight gain in the control animals.
The ED 30 which corresponds to a 30% inhibition in the weight gain was determined.

[2] = D.P.B. = 1, calculated from ED50, Table 2
[3] = rat, local application, six days, Table 2
[4] = D.P.B. = 1, calculated from ED30, Table 3
[5] = rat, local application, weight gain over six days, Table 3

## C=C1C[C@H]2[C@@H]3CCC4=CC(=O)C=C[C@]4(C)[C@H]3[C@@H](O)C[C@]2(C)[C@@]1(OC(=O)CC)C(=O)CSC(=O)CC [Ex. 19, 11β-hydroxy-16-methylene-pregna-1,4-diene-3,20 dione (or prednylidene)17-propionate, 21-thiopropionate]
granuloma
  R 1 (relative local anti-inflammatory activity compared with betamethasone 17,21-dipropionate): 0.89
  ED50 (local anti-inflammatory activity, 50% inhibition in granuloma weight): 1.800 mg/pellet
thymus; rat, in vivo, 8640 min
  ED50 (50% decrease in weight of the thymuses): 7 mg/pellet
  R 2 (relative effect on thymus weight compared with D.P.B.): 0.12
[1]; rat, in vivo, 8640 min
  ED30 (30% inhibition in the weight gain): 0.015 mg/pellet
  R 3 (relative activity on weight gain compared with D.P.B.): 53

## CC(=O)OC1(C(=O)CSC(=O)CC(C)(C)C)C(C)CC2C3CCC4=CC(=O)C=CC4(C)C3(F)C(O)CC21C (stereo not drawn) [Ex. 14, 9α-fluoro-11β-hydroxy-16α-methyl-pregna-1,4-diene-3,20-dione (or dexamethasone) 17-acetate, 21-thio-tert.butyl-acetate]
granuloma
  R 1 (relative local anti-inflammatory activity compared with betamethasone 17,21-dipropionate): 537
  ED50 (local anti-inflammatory activity, 50% inhibition in granuloma weight): 0.003 mg/pellet
granuloma; local anti-inflammatory test
  activity compared with betamethasone 17,21-dipropionate (times greater): more than 100 times
thymus; rat, in vivo, 8640 min
  ED50 (50% decrease in weight of the thymuses): 0.33 mg/pellet
  R 2 (relative effect on thymus weight compared with D.P.B.): 2.6
[1]; rat, in vivo, 8640 min
  ED30 (30% inhibition in the weight gain): 0.015 mg/pellet
  R 3 (relative activity on weight gain compared with D.P.B.): 53

## CCC(=O)OCC(=O)[C@@]1(OC(=O)CC)[C@@H](C)C[C@H]2[C@@H]3CCC4=CC(=O)C=C[C@]4(C)[C@@]3(Cl)[C@@H](O)C[C@@]21C [Beclomethasone dipropionate, beclomethasone 17,21-dipropionate, reference compound]
granuloma
  R 1 (relative local anti-inflammatory activity compared with betamethasone 17,21-dipropionate): < 0.2
  ED50 (local anti-inflammatory activity, 50% inhibition in granuloma weight): > 5 mg/pellet
thymus; [2]
  R 2 (relative effect on thymus weight compared with D.P.B.): 0.27
thymus; [3]
  ED50 (50% decrease in weight of the thymuses): 3.1 mg/pellet
[1]; [4]
  R 3 (relative activity on weight gain compared with D.P.B.): 0.16
[1]; [5]
  ED30 (30% inhibition in the weight gain): 5 mg/pellet

## CCCCC(=O)OC1(C(=O)CSC(=O)CCCC)C(C)CC2C3CCC4=CC(=O)C=CC4(C)C3(Cl)C(O)CC21C (stereo not drawn) [Ex. 18, 9α-chloro-11β-hydroxy-16β-methyl-pregna-1,4-diene-3,20-dione (or beclomethasone) 17-valerate, 21-thiovalerate]
granuloma
  R 1 (relative local anti-inflammatory activity compared with betamethasone 17,21-dipropionate): 16.8
  ED50 (local anti-inflammatory activity, 50% inhibition in granuloma weight): 0.096 mg/pellet
thymus; rat, in vivo, 8640 min
  ED50 (50% decrease in weight of the thymuses): > 1 mg/pellet
  R 2 (relative effect on thymus weight compared with D.P.B.): < 0.86
[1]; rat, in vivo, 8640 min
  ED30 (30% inhibition in the weight gain): > 1.0 mg/pellet
  R 3 (relative activity on weight gain compared with D.P.B.): < 0.8

## CCCCC(=O)O[C@]1(C(=O)CSC(C)=O)CC[C@H]2[C@@H]3C[C@H](C)C4=CC(=O)C=C[C@]4(C)[C@H]3[C@@H](O)C[C@@]21C [Ex. 7, 11β-hydroxy-6α-methyl-pregna-1,4-diene-3,20-dione (or 6α-methylprednisolone) 17-valerate, 21-thioacetate]
granuloma
  R 1 (relative local anti-inflammatory activity compared with betamethasone 17,21-dipropionate): 2.0
  ED50 (local anti-inflammatory activity, 50% inhibition in granuloma weight): 0.800 mg/pellet
thymus; rat, in vivo, 8640 min
  ED50 (50% decrease in weight of the thymuses): > 1 mg/pellet
  R 2 (relative effect on thymus weight compared with D.P.B.): < 0.86
[1]; rat, in vivo, 8640 min
  ED30 (30% inhibition in the weight gain): > 1 mg/pellet
  R 3 (relative activity on weight gain compared with D.P.B.): < 0.8

## CCC(=O)OCC(=O)C1(OC(=O)CC)C(C)CC2C3CCC4=CC(=O)C=CC4(C)C3(F)C(O)CC21C (stereo not shown) [D.P.B., betamethasone 17,21-dipropionate, reference compound]
granuloma
  R 1 (relative local anti-inflammatory activity compared with betamethasone 17,21-dipropionate): 1
  ED50 (local anti-inflammatory activity, 50% inhibition in granuloma weight): 1.610 mg/pellet
thymus; [2]
  R 2 (relative effect on thymus weight compared with D.P.B.): 1
thymus; [3]
  ED50 (50% decrease in weight of the thymuses): 0,86 mg/pellet
[1]; [4]
  R 3 (relative activity on weight gain compared with D.P.B.): 1
[1]; [5]
  ED30 (30% inhibition in the weight gain): > 0.8 mg/pellet

## CC(=O)SCC(=O)[C@@]1(OC(=O)c2ccccc2)CC[C@H]2[C@@H]3C[C@H](C)C4=CC(=O)C=C[C@]4(C)[C@H]3[C@@H](O)C[C@@]21C [Ex. 4, 11β-hydroxy-6α-methyl-pregna-1,4-diene-3,20-dione (or 6β-methylprednisolone) 17-benzoate, 21-thioacetate]
granuloma
  R 1 (relative local anti-inflammatory activity compared with betamethasone 17,21-dipropionate): 29
  ED50 (local anti-inflammatory activity, 50% inhibition in granuloma weight): 0.056 mg/pellet
thymus; rat, in vivo, 8640 min
  ED50 (50% decrease in weight of the thymuses): > 5 mg/pellet
  R 2 (relative effect on thymus weight compared with D.P.B.): < 0.17
[1]; rat, in vivo, 8640 min
  ED30 (30% inhibition in the weight gain): > 5 mg/pellet
  R 3 (relative activity on weight gain compared with D.P.B.): < 0.16

## CCCCC(=O)O[C@]1(C(=O)CSC(=O)CCCC)CC[C@H]2[C@@H]3CCC4=CC(=O)CC[C@]4(C)[C@H]3[C@@H](O)C[C@@]21C [Ex. 1, 11β-hydroxy-pregn-4-ene-3,20-dione (or hydrocortisone) 17-valerate, 21-thiovalerate]
granuloma
  R 1 (relative local anti-inflammatory activity compared with betamethasone 17,21-dipropionate): > 8
  ED50 (local anti-inflammatory activity, 50% inhibition in granuloma weight): < 0.200 mg/pellet
thymus; rat, in vivo
  ED50 (50% decrease in weight of the thymuses): zero to 3.2
thymus; rat, in vivo, 8640 min
  R 2 (relative effect on thymus weight compared with D.P.B.): < 0.27
[1]; rat, in vivo, 8640 min
  ED30 (30% inhibition in the weight gain): > 3.2 mg/pellet
  R 3 (relative activity on weight gain compared with D.P.B.): < 0.25

## CCC(=O)O[C@]1(C(=O)CSC(=O)CC)CC[C@H]2[C@@H]3C[C@H](C)C4=CC(=O)C=C[C@]4(C)[C@H]3[C@@H](O)C[C@@]21C [Ex. 5, 11β-hydroxy-6α-methyl-pregna-1,4-diene-3,20-dione (or 6α-methylprednisolone) 17-propionate, 21-thiopropionate]
granuloma
  R 1 (relative local anti-inflammatory activity compared with betamethasone 17,21-dipropionate): 7.7
  ED50 (local anti-inflammatory activity, 50% inhibition in granuloma weight): 0.210 mg/pellet
thymus; rat, in vivo, 8640 min
  ED50 (50% decrease in weight of the thymuses): > 1 mg/pellet
  R 2 (relative effect on thymus weight compared with D.P.B.): < 0.86
[1]; rat, in vivo, 8640 min
  ED30 (30% inhibition in the weight gain): > 1 mg/pellet
  R 3 (relative activity on weight gain compared with D.P.B.): < 0.8

## CCC(=O)SCC(=O)C1(OC(C)=O)C(C)CC2C3CCC4=CC(=O)C=CC4(C)C3(F)C(O)CC21C (stereo not drawn) [Ex. 9, 9α-fluoro-11β-hydroxy-16β-methyl-pregna-diene-3,20-dione (or betamethasone) 17-acetate, 21-thiopropionate]
granuloma
  R 1 (relative local anti-inflammatory activity compared with betamethasone 17,21-dipropionate): 16
  ED50 (local anti-inflammatory activity, 50% inhibition in granuloma weight): 0.100 mg/pellet
thymus; rat, in vivo, 8640 min
  ED50 (50% decrease in weight of the thymuses): 1.70 mg/pellet
  R 2 (relative effect on thymus weight compared with D.P.B.): 0.51
[1]; rat, in vivo, 8640 min
  ED30 (30% inhibition in the weight gain): 1 mg/pellet
  R 3 (relative activity on weight gain compared with D.P.B.): 0.8

## CCCCC(=O)SCC(=O)C1(OC(=O)CC)C(C)CC2C3CCC4=CC(=O)C=CC4(C)C3(Cl)C(O)CC21C (stereo not drawn) [Ex. 16, 9α-chloro-11β-hydroxy-16β-methyl-pregna-1,4-diene-3,20-dione (or beclomethasone) 17-propionate, 21-thiovalerate]
granuloma
  R 1 (relative local anti-inflammatory activity compared with betamethasone 17,21-dipropionate): 13.4
  ED50 (local anti-inflammatory activity, 50% inhibition in granuloma weight): 0.120 mg/pellet
thymus; rat, in vivo, 8640 min
  ED50 (50% decrease in weight of the thymuses): > 1 mg/pellet
  R 2 (relative effect on thymus weight compared with D.P.B.): < 0.86
[1]; rat, in vivo, 8640 min
  ED30 (30% inhibition in the weight gain): > 1.0 mg/pellet
  R 3 (relative activity on weight gain compared with D.P.B.): < 0.8
